Reference: patent publication US6624193B1, “Preventive and therapeutic agents for eye diseases” (Ono Pharmaceutical Co., Ltd., priority 1999, dated 2003)
Structures can show the parent of a compound that is named as a salt.

Tests used:
[1] = tested on: alkaline erosive keratitis; experiment: Effects on alkaline erosive keratitis (rabbit corneal alkaline erosion model, slit lamp scoring); type: in vivo
Experimental: (§1) The effect of Compound A when given as eye drops was investigated in a rabbit keratitis model using an endotoxin derived from Pseudomonas aeruginosa detected frequently in an ophthalmic infection as well as in a rabbit corneal alkaline erosion model.
(§2) Male Japanese albino rabbits each weighing about 2 to 2.5 kg purchased from FUKUZAKI rabbit-raising association were used. Each animal was maintained at a temperature of 24±4° C. and a humidity of 55±15%.
(§3) Compound A was given as a 1.0% Compound A eye drop formulation prepared by suspending Compound A in a formulation base (0.1% NaH2PO4, 0.1% polysorbate 80 and 0.9% NaCl, pH 5.0). As a positive control, a 0.1% betamethasone eye drop formulation (Rinderon™ solution, Sionogi) was used. In a control group, the formulation base was given.
16 Male Japanese albino rabbits each weighing 2 to 2.5 kg were used. The rabbits were divided into four groups each having 4 animals, which were anesthetized systemically by an intramuscular administration each of 1 ml/kg of an equal volume mixture of 5% ketamine hydrochloride and 2% xylazine hydrochloride and also locally by an instillation of oxybuprocaine hydrochloride. A filter paper whose diameter was 10 mm and which had been immersed in 2N NaOH was brought into contact with the center of the right cornea of a rabbit for 1 minute to establish an alkaline erosion, and then the eye was rinsed immediately with 10 mL or more of physiological saline. The depth of the corneal ulcer and the vascularization were observed using a slit lamp every 5 days over a period from 5 days after the alkaline erosion through the 30th day, and scored in accordance with the criteria shown in Table 1. Each test substance was started to be instilled immediately after the alkaline erosion, and then given 4 times a day in the volume of 20 μl every 2 hours.
(§4) Rabbit Keratitis Scoring Criteria
(§5) Corneal opacity^remarks 1)
(§6) * Vascularization^remarks 1)
(§7) 2: ⅔ or more of corneal circumference Remarks 1) Each as score A x score B

[2] = tested on: Pseudomonas aeruginosa-derived endotoxin-induced keratitis; experiment: Effect on endotoxin-induced keratitis (rabbit keratitis model, slit lamp scoring); type: in vivo
Experimental: as §1, §2, §3
16 Male Japanese albino rabbits each weighing 2 to 2.5 kg were used. The rabbits were divided into four groups each having 4 animals, which were anesthetized systemically by an intramuscular administration each of 1 ml/kg of an equal volume mixture of 5% ketamine hydrochloride and 2% xylazine hydrochloride. Each 10 μl of a 1% solution of Pseudomonas aeruginosa-derived endotoxin in physiological saline was infused into each corneal stroma of a rabbit. An anterior part of an eye was observed using a slit lamp every 5 days over a period from the day after the endotoxin infusion through the 30th day, and examined for the corneal opacity, the corneal ulcer and the vascularization, which were scored in accordance with the criteria shown in Table 1. Each test substance was started to be instilled immediately after the endotoxin infusion, and then given 4 times a day in the volume of 20 μl every 2 hours.
as §4, §5, §6, §7

[3] = tested on: Pseudomonas aeruginosa strain No. ho-134 corneal ulcer; experiment: Effects on pyocyanic corneal ulcer (inoculation of Pseudomonas aeruginosa into corneal stroma, corneal ulcer score); type: in vivo, rabbit; settings: 50 μl four times a day
Experimental: Male Japanese albino rabbits each weighing about 2 kg purchased from KITAYAMA LABE S CO., LTD. were used. Each animal was maintained at a temperature of 23±3° C. and a humidity of 55±10%.
Compound A was given as a 1.0% Compound A eye drop formulation prepared by suspending Compound A in a formulation base (0.1% sodium acetate, 0.1% polysorbate 80 and 0.9% NaCl, pH 5.0). A 0.3% lomefloxacin (LFLX) hydrochloride was used as an. is antibacterial agent, and physiological saline *was used as a control.
After instilling 0.4% oxybuprocaine hydrochloride for a local anesthesia, a nictitating membrane was excised.
A causative microorganism used was a clinical isolate Pseudomonas aeruginosa strain No. ho-134. A rabbit was anesthetized systemically with 5% ketamine hydrochloride and 2% xylazine hydrochloride (equal volume mixture), and then inoculated by an infusion of 30 μl of a 3.9×10^4 CFU/ml cell suspension (1.17×10^3 CFU/cornea) using a 100 μl microsyringe fitted with a 30G needle into one corneal stroma of a rabbit.
An animal which had received an infusion of the cell suspension into the corneal stroma and whose inoculation was surely successful was grouped into one of [1] physiological saline instillation group (control, n=6) and [2]1.0% Compound A instillation group (Compound A group, n=6) as groups whose therapy was started immediately after the inoculation, and [3]1.0% Compound A instillation group (late Compound A group, n=5), [4]0.3% LFLX instillation group (LFLX group, n=6) and [5]1.0% Compound A instillation—0.3% LFLX instillation combination group (Compound A—LFLX combination group, n=6) as groups whose therapy was started 1 day after the inoculation (after onset of corneal ulcer), and 50 μl of each substance was given four times a day immediately after the inoculation or 1 day after the inoculation (after onset of corneal ulcer). […]
Each animal was examined for the corneal ulcer every 24 hours after the inoculation and scored in accordance with the rabbit corneal lesion scoring criteria (Barletta J. P. et al., Invest Ophthalmol Vis Sic 37:20-28, 1996) shown in Table 2. […]

[4] = instillation started 1 day after the inoculation (after onset of corneal ulcer), vs physiological saline (FIG. 9)

For `CC(C)(C)C(=O)Oc1ccc(S(=O)(=O)Nc2ccccc2C(=O)NCC(=O)[O-])cc1.O.O.O.O.[Na+]` [Compound A, N-[o-(p-pivaloyloxybenzenesulfonyl-amino)benzoyl]glycine monosodium salt tetrahydrate], the “effect on corneal opacity” value ([1]; 5 to 30 days after corneal alkaline exposure, 1.0% eye drop, 4 times a day (FIG. 5)) was “no effects were noted”, the effect on vascularization ([1]; 5 to 30 days after corneal alkaline exposure, 1.0% eye drop, 4 times a day (FIG. 7)) was “no effects were noted” and the “effect on corneal ulcer” value ([1]; 20th day after corneal alkaline exposure, 1.0% eye drop, 4 times a day (FIG. 6)) was “significant inhibitory effect”. For the same compound, the “effect on corneal opacity” value ([2]; 5 to 30 days after endotoxin infusion, 1.0% eye drop, 4 times a day, vs control group (FIG. 1)) was “inhibitory effects were observed”, the “effect on corneal ulcer” value ([2]; 5 to 30 days after endotoxin infusion, 1.0% eye drop, 4 times a day, vs control group (FIG. 2)) was “inhibitory effects were observed” and the effect on vascularization ([2]; 5 to 30 days after endotoxin infusion, 1.0% eye drop, 4 times a day, vs control group (FIG. 3)) was “inhibitory effects were observed”. The “% inhibition of total keratitis score compared with the control group” value ([2]; 15th day after endotoxin infusion, 1.0% eye drop, 20 μl 4 times a day, statistically significant difference (FIG. 4)) was 59.4%, the corneal ulcer formation [3, 4] was “corneal ulcer formation was started to be inhibited 3 days after the inoculation” and the corneal ulcer formation ([3]; instillation started immediately after the inoculation, vs physiological saline, statistically significant difference (FIG. 8)) was “corneal ulcer formation was started to be inhibited 3 days after the inoculation”.
With `CCn1cc(C(=O)O)c(=O)c2cc(F)c(N3CCNC(C)C3)c(F)c21` (stereo not drawn) [LFLX, lomefloxacin (LFLX) hydrochloride, reference compound] the corneal ulcer formation [3, 4] was “no inhibition of the corneal ulcer formation”.
With `C[C@H]1C[C@H]2[C@@H]3CCC4=CC(=O)C=C[C@]4(C)[C@@]3(F)[C@@H](O)C[C@]2(C)[C@@]1(O)C(=O)COP(=O)(O)O` [betamethasone phosphate, reference compound] the effect on vascularization ([1]; 15th day after corneal alkaline exposure, 0.1% eye drop, 4 times a day, positive control) was “significant inhibitory effect” and the “onset of the keratitis” value ([2]; over the observation period (5 to 30 days), 0.1% eye drop, 4 times a day, positive control) was “inhibited almost completely”.
